Reference: ChEMBL document CHEMBL4373707 (J Med Chem, 2019)

Assays:
[1] = Inhibition of integrin alphavbeta8 (unknown origin) by radioligand binding assay; set-up: species or system Homo sapiens
[2] = Volume of distribution in dual cannulated Wistar-Han rat at 1 mg/kg, iv administered as infusion for 30 mins and measured up to 24 hrs by LC-MS/MS analysis; type: ADME, organism-based; conditions: in vivo
[3] = Blood clearance in dual cannulated Wistar-Han rat at 1 mg/kg, iv administered as infusion for 30 mins and measured up to 24 hrs by LC-MS/MS analysis; type: ADME, organism-based; conditions: whole blood
[4] = Stability in cryopreserved Wistar-Han rat hepatocytes assessed as compound turnover rate at 0.5 uM measured up to 60 mins by LC-MS/MS analysis; type: ADME, cell-based, Hepatocyte; conditions: 1 h
[5] = Unbound blood clearance in dual cannulated Wistar-Han rat at 1 mg/kg, iv administered as infusion for 30 mins and measured up to 24 hrs by LC-MS/MS analysis; type: ADME, organism-based; conditions: in vivo
[6] = Stability in cryopreserved human hepatocytes at 0.5 uM measured up to 60 mins by LC-MS/MS analysis; type: ADME, cell-based, Hepatocyte; conditions: 1 h
[7] = Inhibition of human LAP binding to human integrin alphavbeta8 after 2 hrs
physchem [8] = conditions: buffer, pH 7.4
Description: Lipophilicity, logD of the compound at pH 7.4 by chromatographic method

[9] = buffer
Description: (§1) Aqueous kinetic solubility of the compund by CLND method

Integrin alpha-V/beta-8 = Integrin alpha-V/beta-8 (Homo sapiens, UniProt P06756+P26012)
Chain of Integrin alpha-V/beta-8 (P06756 31-889 limits assumed): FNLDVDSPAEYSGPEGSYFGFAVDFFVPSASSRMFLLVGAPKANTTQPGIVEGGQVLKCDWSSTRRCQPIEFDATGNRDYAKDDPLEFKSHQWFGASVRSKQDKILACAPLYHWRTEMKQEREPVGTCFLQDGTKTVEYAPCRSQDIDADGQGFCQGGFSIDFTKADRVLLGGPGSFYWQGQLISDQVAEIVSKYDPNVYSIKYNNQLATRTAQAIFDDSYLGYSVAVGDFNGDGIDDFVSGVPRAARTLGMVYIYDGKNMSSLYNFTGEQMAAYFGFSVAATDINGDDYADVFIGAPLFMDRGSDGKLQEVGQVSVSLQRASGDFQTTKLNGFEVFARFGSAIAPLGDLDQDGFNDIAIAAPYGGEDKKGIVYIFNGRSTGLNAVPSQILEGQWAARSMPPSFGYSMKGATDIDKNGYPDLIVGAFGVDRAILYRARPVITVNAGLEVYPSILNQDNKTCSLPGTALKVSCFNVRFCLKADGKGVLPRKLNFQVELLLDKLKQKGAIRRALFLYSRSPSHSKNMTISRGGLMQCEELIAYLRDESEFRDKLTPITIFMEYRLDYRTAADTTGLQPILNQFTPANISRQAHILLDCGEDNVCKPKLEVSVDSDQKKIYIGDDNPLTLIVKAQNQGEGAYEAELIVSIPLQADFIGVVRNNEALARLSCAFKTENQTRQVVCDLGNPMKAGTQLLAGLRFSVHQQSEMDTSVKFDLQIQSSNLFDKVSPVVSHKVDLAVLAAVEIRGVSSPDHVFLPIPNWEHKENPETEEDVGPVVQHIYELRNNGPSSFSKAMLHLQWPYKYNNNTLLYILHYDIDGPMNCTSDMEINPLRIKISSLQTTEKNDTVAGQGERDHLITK
Chain of Integrin alpha-V/beta-8 (P06756 891-1048 limits assumed): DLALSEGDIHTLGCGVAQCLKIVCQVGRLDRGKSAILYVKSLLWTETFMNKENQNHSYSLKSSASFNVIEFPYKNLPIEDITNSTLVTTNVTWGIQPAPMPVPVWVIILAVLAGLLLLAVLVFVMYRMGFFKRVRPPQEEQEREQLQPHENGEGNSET
Chain of Integrin alpha-V/beta-8 (P26012 43-769 limits assumed): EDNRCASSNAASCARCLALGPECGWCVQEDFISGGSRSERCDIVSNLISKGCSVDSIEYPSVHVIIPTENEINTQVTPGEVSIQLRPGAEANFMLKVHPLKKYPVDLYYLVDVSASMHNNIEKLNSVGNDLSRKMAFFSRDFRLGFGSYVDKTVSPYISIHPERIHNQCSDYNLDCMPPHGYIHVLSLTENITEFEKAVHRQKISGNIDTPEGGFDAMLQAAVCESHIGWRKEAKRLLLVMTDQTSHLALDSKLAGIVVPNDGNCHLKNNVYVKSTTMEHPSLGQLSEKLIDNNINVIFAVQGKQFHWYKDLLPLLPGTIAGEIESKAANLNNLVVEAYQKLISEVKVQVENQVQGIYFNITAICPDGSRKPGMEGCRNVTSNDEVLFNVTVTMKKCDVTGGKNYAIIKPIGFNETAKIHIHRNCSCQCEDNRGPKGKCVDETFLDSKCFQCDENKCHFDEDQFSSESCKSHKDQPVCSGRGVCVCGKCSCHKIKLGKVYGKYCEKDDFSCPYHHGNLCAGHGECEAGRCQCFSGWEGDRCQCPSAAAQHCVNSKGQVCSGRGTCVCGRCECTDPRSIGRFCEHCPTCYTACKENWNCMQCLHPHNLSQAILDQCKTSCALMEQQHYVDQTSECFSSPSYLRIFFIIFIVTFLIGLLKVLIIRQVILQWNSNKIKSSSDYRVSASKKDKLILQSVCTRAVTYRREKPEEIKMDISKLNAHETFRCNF
Description: Inhibition of integrin alphavbeta8 (unknown origin) expressed in human K562 cells assessed as reduction in cell adhesion to GST-LAP1 (242 to 252 amino acids) incubated for 30 mins by fluorescent probe BCECF-AM based fluorescence assay

Integrin alpha-V/beta-1 = Integrin alpha-V/beta-1 (Homo sapiens, UniProt P05556+P06756)
Chain of Integrin alpha-V/beta-1 (P05556 21-798 limits assumed): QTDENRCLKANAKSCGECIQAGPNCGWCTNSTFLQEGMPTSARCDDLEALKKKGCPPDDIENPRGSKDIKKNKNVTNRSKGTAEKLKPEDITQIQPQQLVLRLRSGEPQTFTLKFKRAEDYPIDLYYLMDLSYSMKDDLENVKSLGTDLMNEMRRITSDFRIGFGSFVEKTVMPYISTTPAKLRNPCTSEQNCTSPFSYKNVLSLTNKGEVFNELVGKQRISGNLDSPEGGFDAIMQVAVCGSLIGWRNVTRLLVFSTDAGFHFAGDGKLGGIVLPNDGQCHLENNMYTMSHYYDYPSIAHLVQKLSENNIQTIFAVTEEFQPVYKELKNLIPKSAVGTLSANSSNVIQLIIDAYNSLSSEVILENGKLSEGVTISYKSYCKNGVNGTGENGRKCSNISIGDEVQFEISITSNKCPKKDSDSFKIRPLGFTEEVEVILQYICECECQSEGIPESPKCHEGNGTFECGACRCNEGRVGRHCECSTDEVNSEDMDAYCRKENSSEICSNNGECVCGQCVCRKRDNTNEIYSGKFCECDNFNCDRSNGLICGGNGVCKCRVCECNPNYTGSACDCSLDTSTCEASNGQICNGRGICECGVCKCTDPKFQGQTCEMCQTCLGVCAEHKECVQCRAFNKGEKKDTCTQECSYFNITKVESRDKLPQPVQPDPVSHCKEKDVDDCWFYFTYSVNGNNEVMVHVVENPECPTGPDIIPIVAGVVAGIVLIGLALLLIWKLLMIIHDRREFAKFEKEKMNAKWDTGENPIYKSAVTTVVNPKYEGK
Chain of Integrin alpha-V/beta-1 (P06756 31-889 limits assumed): as the sequence (P06756 31-889 limits assumed) above
Chain of Integrin alpha-V/beta-1 (P06756 891-1048 limits assumed): as the sequence (P06756 891-1048 limits assumed) above
Description: Inhibition of integrin alphavbeta1 (unknown origin) expressed in human A549 cells assessed as reduction in cell adhesion to GST-LAP1 (242 to 252 amino acids) incubated for 30 mins by fluorescent probe BCECF-AM based fluorescence assay

Integrin alpha-V/beta-3 = Integrin alpha-V/beta-3 (Homo sapiens, UniProt P05106+P06756)
Description: Inhibition of integrin alphavbeta3 (unknown origin) expressed in human K562 cells assessed as reduction in cell adhesion to GST-LAP1 (242 to 252 amino acids) incubated for 30 mins by fluorescent probe BCECF-AM based fluorescence assay

Integrin alpha-V/beta-5 = Integrin alpha-V/beta-5 (Homo sapiens, UniProt P06756+P18084)
Chain of Integrin alpha-V/beta-5 (P06756 31-889 limits assumed): as the sequence (P06756 31-889 limits assumed) above
Chain of Integrin alpha-V/beta-5 (P06756 891-1048 limits assumed): as the sequence (P06756 891-1048 limits assumed) above
Chain of Integrin alpha-V/beta-5 (P18084 24-799 limits assumed): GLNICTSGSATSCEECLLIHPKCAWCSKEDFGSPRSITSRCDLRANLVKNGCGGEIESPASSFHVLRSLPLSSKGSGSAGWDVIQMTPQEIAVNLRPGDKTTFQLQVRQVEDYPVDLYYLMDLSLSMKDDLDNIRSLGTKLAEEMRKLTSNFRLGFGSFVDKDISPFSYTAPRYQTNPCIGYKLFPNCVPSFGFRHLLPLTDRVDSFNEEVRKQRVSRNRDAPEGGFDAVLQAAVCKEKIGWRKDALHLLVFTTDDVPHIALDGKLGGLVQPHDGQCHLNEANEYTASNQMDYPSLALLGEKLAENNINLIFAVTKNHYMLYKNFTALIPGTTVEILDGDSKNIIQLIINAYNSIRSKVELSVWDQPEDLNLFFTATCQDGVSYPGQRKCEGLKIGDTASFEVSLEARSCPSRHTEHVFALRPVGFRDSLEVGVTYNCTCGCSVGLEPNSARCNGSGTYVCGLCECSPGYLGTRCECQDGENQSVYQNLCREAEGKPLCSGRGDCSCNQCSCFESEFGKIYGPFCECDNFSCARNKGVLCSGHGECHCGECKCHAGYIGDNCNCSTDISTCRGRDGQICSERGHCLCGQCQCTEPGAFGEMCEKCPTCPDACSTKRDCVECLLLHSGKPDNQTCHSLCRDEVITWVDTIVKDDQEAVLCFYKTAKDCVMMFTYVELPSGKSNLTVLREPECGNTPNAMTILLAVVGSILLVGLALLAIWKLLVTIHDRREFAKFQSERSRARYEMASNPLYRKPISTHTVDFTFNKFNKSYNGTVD
Description: Inhibition of integrin alphavbeta5 (unknown origin) expressed in human K562 cells assessed as reduction in cell adhesion to human vitronectin incubated for 30 mins by fluorescent probe BCECF-AM based fluorescence assay

Homo sapiens [10] = organism: Homo sapiens; assay: Selectivity ratio of IC50 for integrin alphavbeta8 (unknown origin) expressed in human K562 cells to IC50 for integrin alphavbeta6 (unknown origin) expressed in human K562 cells; type: cell-based
Integrin alpha-V/beta-6 [11] = target: T1, Integrin alpha-V/beta-6 (Homo sapiens, UniProt P06756+P18564)
T1 sequence (P06756 31-889 limits assumed): as the sequence (P06756 31-889 limits assumed) above
T1 sequence (P06756 891-1048 limits assumed): as the sequence (P06756 891-1048 limits assumed) above
T1 sequence (P18564 22-788 limits assumed): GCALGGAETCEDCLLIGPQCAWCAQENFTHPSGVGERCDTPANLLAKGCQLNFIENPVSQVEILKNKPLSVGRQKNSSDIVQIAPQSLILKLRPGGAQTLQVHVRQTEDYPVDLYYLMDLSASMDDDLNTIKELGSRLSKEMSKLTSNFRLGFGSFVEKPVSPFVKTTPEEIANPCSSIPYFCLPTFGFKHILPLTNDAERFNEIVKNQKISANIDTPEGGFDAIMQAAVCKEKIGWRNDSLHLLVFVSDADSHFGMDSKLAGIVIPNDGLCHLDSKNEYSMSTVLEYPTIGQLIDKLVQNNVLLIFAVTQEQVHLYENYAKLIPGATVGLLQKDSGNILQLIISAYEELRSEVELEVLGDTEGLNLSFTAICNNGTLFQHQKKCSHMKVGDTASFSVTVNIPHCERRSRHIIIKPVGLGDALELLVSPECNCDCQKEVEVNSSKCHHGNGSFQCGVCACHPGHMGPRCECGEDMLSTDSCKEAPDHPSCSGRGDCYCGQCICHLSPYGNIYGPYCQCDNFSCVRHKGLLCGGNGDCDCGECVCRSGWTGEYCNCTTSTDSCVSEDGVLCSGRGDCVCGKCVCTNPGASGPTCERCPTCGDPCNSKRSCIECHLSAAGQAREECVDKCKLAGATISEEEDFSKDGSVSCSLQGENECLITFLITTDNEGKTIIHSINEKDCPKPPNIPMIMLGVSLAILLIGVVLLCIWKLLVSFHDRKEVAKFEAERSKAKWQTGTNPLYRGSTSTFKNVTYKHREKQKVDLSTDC
Description: Inhibition of integrin alphavbeta6 (unknown origin) expressed in human K562 cells assessed as reduction in cell adhesion to GST-LAP1 (242 to 252 amino acids) incubated for 30 mins by fluorescent probe BCECF-AM based fluorescence assay

Homo sapiens [12] = organism: Homo sapiens; assay: Selectivity ratio of IC50 for integrin alphavbeta3 (unknown origin) expressed in human K562 cells to IC50 for integrin alphavbeta6 (unknown origin) expressed in human K562 cells; type: cell-based
Homo sapiens [13] = organism: Homo sapiens; assay: Selectivity ratio of IC50 for integrin alphavbeta1 (unknown origin) expressed in human A549 cells to IC50 for integrin alphavbeta6 (unknown origin) expressed in human K562 cells; type: cell-based
Integrin alpha-V/beta-6 [14] = target: T1, Integrin alpha-V/beta-6; assay: Inhibition of integrin alphavbeta6 (unknown origin) by radioligand binding assay; type: protein-complex assay
Homo sapiens [15] = organism: Homo sapiens; assay: Selectivity ratio of IC50 for integrin alphavbeta5 (unknown origin) expressed in human K562 cells to IC50 for integrin alphavbeta6 (unknown origin) expressed in human K562 cells; type: cell-based
physchem [16] = conditions: buffer
Description: as §1

[17] = Drug metabolism assessed as unmethylated (3S)-3-[3-(3,5-dimethylpyrazol-1-yl)phenyl]-4-[(3R)-3-[2-(5,6,7,8-tetrahydro-1,8-naphthyridin-2-yl)ethyl]pyrrolidin-1-yl]butanoic acid hydrochloride formation
[18] = Blood clearance in dual cannulated Wistar-Han rat at 1 mg/kg, iv administered as infusion for 60 mins and measured up to 7 hrs by LC-MS/MS analysis; type: ADME, organism-based; conditions: whole blood
[19] = Protein binding in human blood assessed as fraction unbound at 1 ug/ml incubated for 4 hrs by LC-MS/MS-based rapid equilibrium dialysis method; type: ADME, tissue-based; conditions: at 1 µg/mL
[20] = Unbound blood clearance in dual cannulated Wistar-Han rat at 1 mg/kg, iv administered as infusion for 60 mins and measured up to 7 hrs by LC-MS/MS analysis; type: ADME, organism-based; conditions: in vivo
in vitro = conditions: not told
Description: Permeability of the compound

[21] = Volume of distribution in dual cannulated Wistar-Han rat at 1 mg/kg, iv administered as infusion for 60 mins and measured up to 7 hrs by LC-MS/MS analysis; type: ADME, organism-based; conditions: in vivo
[22] = Half-life in dual cannulated Wistar-Han rat at 1 mg/kg, iv administered as infusion for 60 mins and measured up to 7 hrs by LC-MS/MS analysis; type: ADME, organism-based; conditions: in vivo
[23] = Protein binding in rat blood assessed as unbound fraction at 1 ug/ml incubated for 4 hrs by LC-MS/MS-based rapid equilibrium dialysis method; type: ADME, tissue-based; conditions: at 1 µg/mL
[24] = target: Voltage-gated inwardly rectifying potassium channel KCNH2 (Homo sapiens, UniProt Q12809); assay: Inhibition of human ERG expressed in CHO-K1 cells at -80 mV holding potential by IonWorks barracuda automated electrophysiology method; type: cell-based
[25] = Protein binding in human lung homogenates assessed as fraction unbound at 1 ug/ml incubated for 4 hrs by LC-MS/MS-based rapid equilibrium dialysis method; type: ADME, tissue-based; conditions: at 1 µg/mL

## Cc1cc(C)n(-c2cccc([C@H](CC(=O)O)CN3CC[C@@H](CCc4ccc5c(n4)NCCC5)C3)c2)n1.Cl [GSK-3008348]
[1]
  pKi: 8.7
[2]
  Vd: 2.1 L/kg
[3]
  clearance: 56 mL/min/kg
[4]
  Drug metabolism: 9.45 mL/min/g
[5]
  CL free: 150 mL/min/kg
[6]
  Stability: < 0.86 mL/min/g

## CC(C)(C)c1cc(Br)cc([C@H](CC(=O)O)NC(=O)CNC(=O)c2cc(O)cc(NC3=NCC(O)CN3)c2)c1 (stereo partly specified)
[7]
  IC50: 0.2 nM

## O=C(O)C[C@H](CN1CC[C@@H](CCc2ccc3c(n2)NCCC3)C1)c1cccc(N2CCOCC2)c1
Physchem [8]
  chromatographic logD: 2.3
[9]
  Kinetic_solubility: Soluble

## Cc1ccnn1-c1cccc([C@H](CC(=O)[O-])C[N+]2(C)CC[C@@H](CCc3ccc4c(n3)NCCC4)C2)c1 (mixture of isomers)
Integrin alpha-V/beta-8
  IC50: 100 nM
Integrin alpha-V/beta-1
  IC50: 1580 nM
Physchem [8]
  chromatographic logD: 2.1
Integrin alpha-V/beta-3
  IC50: 6310 nM
[9]
  Kinetic_solubility: Soluble
Integrin alpha-V/beta-5
  IC50: 631 nM

## Cc1cc(C)n(-c2cccc([C@H](CC(=O)[O-])C[N@+]3(C)CC[C@@H](CCc4ccc5c(n4)NCCC5)C3)c2)n1
Integrin alpha-V/beta-8
  IC50: 63.1 nM
Homo sapiens [10]
  Ratio IC50: 10 to 1000
Integrin alpha-V/beta-6 [11]
  IC50: 3.16 nM
Homo sapiens [12]
  Ratio IC50: 10 to 1000
Homo sapiens [13]
  Ratio IC50: 10 to 1000
Integrin alpha-V/beta-6 [14]
  Ki: 0.174 nM
Integrin alpha-V/beta-1
  IC50: 2000 nM
Homo sapiens [15]
  Ratio IC50: 10 to 1000
Physchem [8]
  chromatographic logD: 2.4
Integrin alpha-V/beta-3
  IC50: > 10000 nM
[9]
  Kinetic_solubility: Soluble
Integrin alpha-V/beta-5
  IC50: 1000 nM

## CC[N@+]1(C[C@@H](CC(=O)[O-])c2cccc(-n3nc(C)cc3C)c2)CC[C@@H](CCc2ccc3c(n2)NCCC3)C1
Integrin alpha-V/beta-8
  IC50: 1260 nM
Integrin alpha-V/beta-6 [11]
  IC50: 39.8 nM
Integrin alpha-V/beta-1
  IC50: 5010 nM
Physchem [8]
  chromatographic logD: 2.8
[9]
  Kinetic_solubility: Soluble
Integrin alpha-V/beta-5
  IC50: > 10000 nM

## Cc1cc(C)n(-c2cccc([C@H](CC(=O)[O-])C[N@@+]3(C)CC[C@@H](CCc4ccc5c(n4)NCCC5)C3)c2)n1
Physchem [16]
  solubility kinetic: > 1000 µg/mL
[17]
  Drug metabolism: Metabolite not detected
[18]
  clearance: 87.6 mL/min/kg
Integrin alpha-V/beta-8
  IC50: 79.4 nM
[19]
  fraction unbound at 4 h, 1 ug/ml: 0.503
[20]
  CL free: 190 mL/min/kg
In vitro
  Papp: < 0.8 ×10⁻⁶ cm/s
[21]
  Vd: 1.1 L/kg
Homo sapiens [10]
  Ratio IC50: 10 to 1000
Integrin alpha-V/beta-6 [11]
  IC50: 3.16 nM
Homo sapiens [12]
  Ratio IC50: 10 to 1000
[22]
  half-life: 13.2 min
Homo sapiens [13]
  Ratio IC50: 10 to 1000
[4]
  Drug metabolism: 1.22 mL/min/g
Integrin alpha-V/beta-6 [14]
  Ki: 0.107 nM
[23]
  fraction unbound at 4 h, 1 ug/ml: 0.583
Integrin alpha-V/beta-1
  IC50: 631 nM
Homo sapiens [15]
  Ratio IC50: 10 to 1000
Physchem [8]
  chromatographic logD: 2.5
Integrin alpha-V/beta-3
  IC50: 6310 nM
Integrin alpha-V/beta-5
  IC50: 501 nM
[6]
  Stability: < 0.45 mL/min/g
[24]
  IC50: > 50100 nM
[25]
  fraction unbound at 4 h, 1 ug/ml: 0.097

## C[N+]1(C[C@@H](CC(=O)[O-])c2cccc(N3CCOCC3)c2)CC[C@@H](CCc2ccc3c(n2)NCCC3)C1 (mixture of isomers)
Integrin alpha-V/beta-8
  IC50: 126 nM
Integrin alpha-V/beta-6 [11]
  IC50: 12.6 nM
Integrin alpha-V/beta-1
  IC50: 794 nM
Physchem [8]
  chromatographic logD: 1.8
Integrin alpha-V/beta-3
  IC50: 5010 nM
[9]
  Kinetic_solubility: Soluble
Integrin alpha-V/beta-5
  IC50: 251 nM

## C[N+]1(C[C@@H](CC(=O)[O-])c2cccc(O[C@@H]3CCOC3)c2)CC[C@@H](CCc2ccc3c(n2)NCCC3)C1 (mixture of isomers)
Integrin alpha-V/beta-8
  IC50: 200 nM
Integrin alpha-V/beta-6 [11]
  IC50: 12.6 nM
Integrin alpha-V/beta-1
  IC50: 3980 nM
Physchem [8]
  chromatographic logD: 1.9
Integrin alpha-V/beta-3
  IC50: 3980 nM
[9]
  Kinetic_solubility: Soluble
Integrin alpha-V/beta-5
  IC50: 79.4 nM
